In PubChem BioAssay (NCI):
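The compound was tested at five concentrations on cells cultured in 96-well plates, with a 48-hour exposure period. At the GI50, growth is halved. TGI denotes the concentration required for complete inhibition of growth.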

How the values were obtained:
Experiment in all cases: NCI anticancer screen, dose series, 48 h
[1] = test system: NCI-H460 lung
[2] = test system: SF-295 CNS
[3] = test system: SR leukemia
[4] = test system: HOP-92 NSCLC
[5] = test system: UO-31 renal
[6] = test system: OVCAR-3 ovarian
[7] = test system: TK-10 renal
[8] = test system: NCI-H226 lung
[9] = test system: COLO 205 colon
[10] = test system: MCF7 breast

COc1cc(C[P+](c2ccccc2)(c2ccccc2)c2ccccc2)cc(OC)c1OC
TGI [1]: > 100 µM
TGI [2]: > 100 µM
TGI [3]: > 100 µM
TGI [4]: > 100 µM
TGI [5]: > 100 µM
TGI [6]: > 100 µM
TGI [7]: > 100 µM
TGI [8]: > 100 µM
TGI [9]: > 100 µM

COc1ccc(NC(=O)CSc2nnc(-c3ccc(NC(C)=O)cc3)o2)cc1
TGI [1]: 34 µM
TGI [2]: 68.5 µM
TGI [5]: 33 µM
TGI [6]: 35.5 µM
TGI [7]: 41.2 µM
TGI [8]: 57.8 µM
TGI [9]: 36.8 µM

O/N=C1\CCCCC1C(NO)c1ccccc1 (stereo unspecified)
TGI [1]: > 100 µM
TGI [2]: > 100 µM
TGI [4]: > 100 µM
TGI [5]: > 100 µM
TGI [6]: > 100 µM
TGI [7]: > 100 µM
TGI [9]: > 100 µM

N#CC(I)CS(=O)(=O)c1ccccc1 (stereo unspecified)
GI50 [1]: 21.6 µM
TGI [1]: 42.4 µM
GI50 [2]: > 100 µM
TGI [2]: > 100 µM
GI50 [4]: 13.2 µM
TGI [4]: 26.9 µM
GI50 [5]: 12 µM
TGI [5]: 25.8 µM
GI50 [10]: 16.7 µM
TGI [10]: 39.9 µM
GI50 [6]: 2.03 µM
TGI [6]: 3.55 µM
GI50 [7]: 1.75 µM
TGI [7]: 3.3 µM
GI50 [8]: 17.9 µM
TGI [8]: 37.8 µM
GI50 [9]: 2.03 µM
TGI [9]: 3.86 µM

O=C(c1ccc([N+](=O)[O-])cc1[N+](=O)[O-])N(/N=C/C=C/c1ccccc1)c1nnc(-c2ccccc2)c(-c2ccccc2)n1
TGI [1]: > 100 µM
TGI [2]: > 100 µM
TGI [4]: 51.2 µM
TGI [5]: 50.6 µM
TGI [6]: > 100 µM
TGI [7]: 78 µM
TGI [8]: > 100 µM
TGI [9]: > 100 µM

NNc1ncnc2nc[nH]c12
GI50 [1]: 5.58 µM
TGI [1]: 51.6 µM
GI50 [2]: 3.95 µM
TGI [2]: > 72.6 µM
GI50 [4]: 4 µM
TGI [4]: 55.4 µM
GI50 [5]: 2.48 µM
TGI [5]: > 100 µM
GI50 [10]: 3.1 µM
TGI [10]: > 100 µM
GI50 [6]: 3.56 µM
TGI [6]: 26.9 µM
GI50 [7]: 2.94 µM
TGI [7]: > 100 µM
GI50 [8]: 5.88 µM
TGI [8]: > 100 µM
GI50 [9]: 2.56 µM
TGI [9]: 18.7 µM

O=[N+]([O-])c1cccnc1N=Nc1c(O)[nH]c2ccccc12
TGI [1]: 35.9 µM
TGI [2]: 38.7 µM
TGI [4]: > 100 µM
TGI [5]: 81.2 µM
TGI [10]: 20.6 µM
TGI [6]: > 100 µM
TGI [7]: 40.8 µM
TGI [8]: > 100 µM

Cc1nc2c(Br)cc(Br)cc2c(=O)n1-c1nnc(-c2cccc(Cl)c2Cl)c(N)n1
GI50 [1]: 20.3 µM
TGI [1]: > 100 µM
GI50 [2]: 13.2 µM
TGI [2]: 41.1 µM
GI50 [4]: 42.4 µM
TGI [4]: > 100 µM
GI50 [5]: 31 µM
TGI [5]: > 100 µM
GI50 [10]: 26.7 µM
TGI [10]: > 100 µM
GI50 [6]: 18.6 µM
TGI [6]: 60.4 µM
GI50 [8]: 21.3 µM
TGI [8]: 59.6 µM
GI50 [9]: 32.9 µM
TGI [9]: > 100 µM

CCCCCCCC(=O)OCC1OC(n2cc(F)c(=O)[nH]c2=O)C(N)C(OC(=O)CCCCCCC)C1O (stereo unspecified)
TGI [1]: 34.8 µM
TGI [2]: 31.3 µM
TGI [4]: 34.3 µM
TGI [5]: 36.6 µM
TGI [6]: 41.2 µM
TGI [7]: 56.9 µM
TGI [9]: 34 µM

CC(C)C1CN(C(=O)OCc2ccccc2)C2N1C(=O)C2(C)OCc1ccccc1 (stereo unspecified)
TGI [1]: > 100 µM
TGI [2]: > 100 µM
TGI [3]: 98 µM
TGI [5]: 68.8 µM
TGI [6]: > 100 µM
TGI [7]: > 100 µM
TGI [8]: 81 µM
TGI [9]: 37.2 µM

CCC(C)(C)n1c(C)nc2c1C(=O)c1ccccc1C2=O
TGI [1]: 29 µM
TGI [2]: > 100 µM
TGI [3]: 42.7 µM
TGI [5]: 90.7 µM
TGI [6]: > 100 µM
TGI [7]: > 100 µM
TGI [8]: > 100 µM
TGI [9]: 46.2 µM

O=S(=O)(OI(OI(OS(=O)(=O)C(F)(F)F)c1ccccc1)c1ccccc1)C(F)(F)F
TGI [1]: > 100 µM
TGI [2]: > 100 µM
TGI [5]: > 100 µM
TGI [6]: > 100 µM
TGI [7]: > 100 µM
TGI [8]: > 100 µM
TGI [9]: > 100 µM

Cc1cc(C)nc(NS(=O)(=O)c2ccc(Nc3c4ccccc4nc4c(C(=O)N5CCN(CCO)CC5)cccc34)cc2)n1
TGI [1]: > 100 µM
TGI [2]: > 100 µM
TGI [3]: > 100 µM
TGI [4]: > 100 µM
TGI [5]: > 100 µM
TGI [6]: > 100 µM
TGI [7]: > 100 µM
TGI [8]: > 100 µM
TGI [9]: > 100 µM

COC(=O)c1c2c(c(C)[n+]([O-])c1C)C(=O)C(NCc1ccc(Br)cc1)=CC2=O
GI50 [1]: 1.86 µM
TGI [1]: > 100 µM
GI50 [4]: 3.07 µM
TGI [4]: 7.15 µM
GI50 [10]: 1.33 µM
TGI [10]: 3.21 µM
GI50 [6]: 0.301 µM
TGI [6]: 0.957 µM

CN(C)CCNC(=O)Cc1ccccc1Nc1c(Cl)cccc1Cl
TGI [1]: 24.7 µM
TGI [2]: 30.1 µM
TGI [3]: 37.7 µM
TGI [5]: 25.6 µM
TGI [6]: 36.1 µM
TGI [7]: 27.2 µM
TGI [8]: 34.3 µM
TGI [9]: 30.6 µM

C=C(CN(C)Cc1ccccc1)c1ccc(NC(=O)c2ccc(C(=C)CN(C)Cc3ccccc3)cc2)cc1
GI50 [1]: 97.3 µM
TGI [1]: > 100 µM
GI50 [2]: 71.4 µM
TGI [2]: > 100 µM
GI50 [5]: 76.2 µM
TGI [5]: > 100 µM
GI50 [10]: 59.3 µM
TGI [10]: > 100 µM
GI50 [6]: > 100 µM
TGI [6]: > 100 µM
GI50 [7]: > 100 µM
TGI [7]: > 100 µM
GI50 [8]: 34.6 µM
TGI [8]: > 100 µM
GI50 [9]: > 100 µM
TGI [9]: > 100 µM

CCCCCCCCSC1=C(Cl)C(=O)C(OC)=C(OC)C1=O
TGI [1]: 69.5 µM
TGI [2]: 47.4 µM
TGI [4]: 35.1 µM
TGI [5]: 25.7 µM
TGI [10]: 17.4 µM
TGI [6]: 23.8 µM
TGI [7]: 28.5 µM
TGI [8]: 34.6 µM
TGI [9]: 38 µM

CCCCOCCOC1=C(Cl)C(=O)c2c(O)ccc(O)c2C1=O
TGI [1]: 3.48 µM
TGI [2]: 2.91 µM
TGI [4]: 0.657 µM
TGI [5]: 1.72 µM
TGI [10]: 2.04 µM
TGI [6]: 1.63 µM
TGI [7]: 1.81 µM
TGI [8]: 4.63 µM
TGI [9]: 0.397 µM

O=C1C/C(Br)=C\c2ccccc2-c2ccccc21
TGI [1]: 10.4 µM
TGI [2]: 16.9 µM
TGI [3]: 2.73 µM
TGI [4]: 5.27 µM
TGI [5]: 6.87 µM
TGI [6]: 7.52 µM
TGI [7]: 14.5 µM
TGI [8]: 8.22 µM
TGI [9]: 12.4 µM

O=C1c2cccc3cccc(c23)C(=O)N1CCN(CCO)CCO
TGI [1]: 69.9 µM
TGI [2]: > 100 µM
TGI [3]: 44.9 µM
TGI [4]: 83 µM
TGI [5]: > 100 µM
TGI [6]: > 100 µM
TGI [7]: 62.3 µM
TGI [8]: 40.1 µM
TGI [9]: 30.2 µM

Nc1c(S(=O)(=O)c2ccc(Cl)cc2)c2nc3ccccc3nc2n2ccnc12
TGI [1]: > 100 µM
TGI [2]: > 100 µM
TGI [4]: > 100 µM
TGI [5]: > 100 µM
TGI [6]: > 100 µM
TGI [7]: 78.2 µM
TGI [8]: 84.1 µM
TGI [9]: > 100 µM
